The values that follow come from patent publication US20250228239A1, “MOLECULES HAVING PESTICIDAL UTILITY, AND INTERMEDIATES, COMPOSITIONS, AND PROCESSES, RELATED THERETO” (priority 2024, published 2025).

The term mortality denotes the percentage killed.

The subject of experiment [1] is Beet Armyworm (Spodoptera exigua, LAPHEG). Briefly: Bioassays on Beet Armyworm (BAW), 128-well diet tray assay. It is filed as in vivo. The conditions noted are these: Spodoptera exigua. The method in brief:
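Percent larval mortality, averaged across eight wells, scored after five to seven days at 25° C. under 14:10 light-dark. Each well held one to five second instars feeding on diet dosed at 50 μg/cm^2 with compound from 90:10 acetone-water, solvent dried off.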

Experiment [2] relates to Cabbage Looper (Trichoplusia ni, TRIPNI). Briefly: Bioassays on Cabbage Looper (CL), 128-well diet tray assay. It is filed as in vivo. The conditions noted are these: Trichoplusia ni. An outline of the steps:
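Diet tray, 2nd instar, 1–5 larvae/well; 50 μg/cm^2 compound surface-applied (acetone:water 90:10), dried; 8 wells/treatment; 25° C, 14:10 L:D, 5–7 d; % mortality, mean of 8 wells.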

Where [3] appears, read: Table ABC: Biological Results, species BAW, read-out: BAW.
Where [4] appears, read: Table ABC: Biological Results, species CL, read-out: CL.
The mark [5] stands for this setting: Beet Armyworm, rating class, read-out: BAW.
[6] abbreviates: Cabbage Looper, rating class, read-out: CL.

Like-named read-outs stand apart in the source and are kept apart here.

Regarding `CN(C(=O)c1c(Cl)ccc(NC(=O)[C@H]2[C@H](c3ccc(F)c(Cl)c3)C2(Cl)Cl)c1Cl)c1ccc(N)cc1` (relative stereo) [F1106, trans-N-(4-Aminophenyl)-2,6-dichloro-3-(2,2-dichloro-3-(3-chloro-4-fluorophenyl)cyclopropane-1-carboxamido)-N-methylbenzamide], the pest or weed control at 50 µg/cm2 is 50 to 100% in experiment [1] (setting [3]) and 0 to 50% in experiment [2] (setting [4]).

Regarding `CC(=O)Nc1ccc(F)c(NC(=O)c2cc(NC(=O)[C@H]3[C@H](c4ccc(Cl)c(Cl)c4)C3(Cl)Cl)ccc2F)c1F` [F1514, N-(3-Acetamido-2,6-difluorophenyl)-5-((1R,3R)-2,2-dichloro-3-(3,4-dichlorophenyl)cyclopropane-1-carboxamido)-2-fluorobenzamide], the pest or weed control at 50 µg/cm2 in experiment [1] (setting [5]) and in experiment [2] (setting [6]) was 50 to 100% in each case.

As for `Nc1cc(F)c(NC(=O)c2cc(NC(=O)[C@H]3[C@H](c4cc(Cl)cc(Cl)c4)C3(Cl)Cl)ccc2Cl)c(F)c1` [F1027, N-(4-Amino-2,6-difluorophenyl)-2-chloro-5-((1R,3R)-2,2-dichloro-3-(3,5-dichlorophenyl)cyclopropane-1-carboxamido)benzamide], the pest or weed control at 50 µg/cm2 in experiment [1] (setting [3]) and in experiment [2] (setting [4]) was 50 to 100% throughout.

For the molecule `O=C(Nc1cc(NC(=O)C(F)(F)F)c(F)cc1F)c1cc(NC(=O)[C@H]2[C@H](c3ccc(Cl)c(Cl)c3)C2(Cl)Cl)cc(F)c1F` [F1582, 5-((1R,3R)-2,2-Dichloro-3-(3,4-dichlorophenyl)cyclopropane-1-carboxamido)-N-(2,4-difluoro-5-(2,2,2-trifluoroacetamido)phenyl)-2,3-difluorobenzamide], the pest or weed control at 50 µg/cm2 in experiment [1] (setting [5]) and in experiment [2] (setting [6]) was 50 to 100% in each case.

Consider `CC(C)(C)OC(=O)NNC(=O)c1cc(NC(=O)[C@H]2[C@H](c3cc(Cl)cc(Cl)c3)C2(Cl)Cl)ccc1Cl` (relative stereo) [F2566, trans-tert-butyl 2-(2-chloro-5-(2,2-dichloro-3-(3,5-dichlorophenyl)cyclopropane-1-carboxamido)benzoyl)hydrazine-1-carboxylate], for which the mortality at 50 µg/cm2 in experiment [1] (168 h, second instar larvae, 50 μg/cm^2 of test molecule on artificial diet, 25° C., five to seven days, average of eight wells, read-out: BAW % Control (or Mortality) rating) was 50 to 100%; in experiment [2] (168 h, second instar larvae, 50 μg/cm^2 of test molecule on artificial diet, 25° C., five to seven days, average of eight wells, read-out: CL % Control (or Mortality) rating), 50 to 100%. Further, the pest or weed control at 50 µg/cm2 in experiment [1] (Beet Armyworm, Table ABC / ABC-DP rating, read-out: BAW rating) fell in the range of 50 to 100%; in experiment [2] (Cabbage Looper, Table ABC / ABC-DP rating, read-out: CL rating), 50 to 100%.

For the molecule `Cc1cc(NC(=O)[C@H]2[C@H](c3ccc(Cl)c(Cl)c3)C2(Cl)Cl)cc(C(=O)Nc2cc(NC(=O)C(F)F)c(F)cc2F)c1Cl` [F1496, 2-Chloro-5-((1R,3R)-2,2-dichloro-3-(3,4-dichlorophenyl)cyclopropane-1-carboxamido)-N-(5-(2,2-difluoroacetamido)-2,4-difluorophenyl)-3-methylbenzamide], the pest or weed control at 50 µg/cm2 in experiment [1] (setting [5]) and in experiment [2] (setting [6]) was 50 to 100% in each case.

As to `O=C(Nc1c(F)ccc(NC(=O)C(F)(F)C(F)F)c1F)c1cc(NC(=O)[C@H]2[C@H](c3ccc(Cl)c(Cl)c3)C2(Cl)Cl)ccc1Cl` [F1535, 2-Chloro-5-((1R,3R)-2,2-dichloro-3-(3,4-dichlorophenyl)cyclopropane-1-carboxamido)-N-(2,6-difluoro-3-(2,2,3,3-tetrafluoropropanamido)phenyl)benzamide], the pest or weed control at 50 µg/cm2 in experiment [1] (setting [5]) and in experiment [2] (setting [6]) was 50 to 100% each time.

For `O=C(Nc1c(F)ccc(NC(=O)C(F)F)c1F)c1cc(NC(=O)[C@H]2[C@H](c3cc(Cl)cc(Cl)c3)C2(Cl)Cl)cc(F)c1Cl` [F1341, 2-Chloro-5-((1R,3R)-2,2-dichloro-3-(3,5-dichlorophenyl)cyclopropane-1-carboxamido)-N-(3-(2,2-difluoroacetamido)-2,6-difluorophenyl)-3-fluorobenzamide], the pest or weed control at 50 µg/cm2 in experiment [1] (setting [3]) and in experiment [2] (setting [4]) was 50 to 100% each time.
